From paper PMC9551276, “Design, synthesis and biological evaluation of novel orthosteric-allosteric ligands of the cannabinoid receptor type 2 (CB2R)” (Frontiers in Chemistry, 2022)

Assays:
hCB2R [1] = target: T1, hCB2R (Homo sapiens, UniProt P34972); experiment: DiscoveRx HitHunter inhibition of FSK-stimulated cAMP accumulation; format: cell-based
Protocol: Inhibition of FSK-stimulated cAMP accumulation was measured using the DiscoveRx HitHunter assay.

hCB2R [2] = target: T1, hCB2R; experiment: DiscoveRx PathHunter βarrestin2 recruitment; format: cell-based
Protocol: βarrestin2 recruitment was quantified using the DiscoveRx PathHunter® assay. […] Detection solution was added to cells (DiscoveRx), and cells were incubated for 60 min at room temperature. Chemiluminescence was measured on a Cytation5 plate reader (top read, gain 200, integration time 10,000 ms).

hCB1R = target: T2, hCB1R (Homo sapiens, UniProt P21554); experiment: [3H]CP55,940 radioligand displacement, CHO-K1 hCB1R membranes; format: binding; settings: % [3H]CP55,940 bound, 1 nM radioligand, 2 h
T2 construct: expressed in transfected cells; host or cells: CHO-K1 (ATCC CCL-61) stably expressing hCB1R; membranes
Protocol: (§1) CHO-K1 cells were thawed, diluted in Tris buffer (50 mM Tris [pH 7.4]) and homogenized in a 1 ml hand-held homogenizer. hCB1R and hCB2R CHO-K1 cell membranes were collected by cavitation in a pressure cell, and sedimented by ultracentrifugation. Pellets were resuspended in TME buffer (50 mM Tris, 5 mM MgCl2, 1 mM EDTA [pH 7.4]), and protein concentration was measured via the Bradford method according to the manufacturer’s directions (Bio-Rad Laboratories, Mississauga, ON). […] Radioligand binding began with the addition of CHO-K1 cell membranes (25 µg protein per sample). Assays were performed for 120 min at 37°C and stopped by the addition of ice-cold Tris binding buffer (pH 7.4), followed by vacuum filtration using a 24-well sampling manifold (Brandel Cell Harvester; Brandel Inc., Gaithersburg, MD, United States ). Brandel GF/B filter paper was soaked with wash buffer at 4 °C for at least 24 h. Each filter paper was washed 6 times with a 1.2 ml aliquot of Tris-binding buffer (pH 7.4), then air-dried and submerged in 5 ml of scintillation fluid (Ultima Gold XR, PerkinElmer). Liquid scintillation spectrometry was used to quantify radioactivity.

hCB2R [3] = target: T1, hCB2R; experiment: [3H]CP55,940 radioligand displacement, CHO-K1 hCB2R membranes; format: binding
Protocol: as §1, with “Assays were performed for 120 min at 37°C and stopped by the addition of ice-cold Tris binding buffer (pH 7.4), followed by vacuum filtration using a 24-well sampling manifold (Brandel Cell Harvester; Brandel Inc., Gaithersburg, MD, United States ).” left out

[4] = system: human microglial cells (HMC3); experiment: IL-6 and IL-10 release (ELISA) in LPS/TNFα-stimulated HMC3 cells; format: cell-based
Protocol: The concentrations of pro-inflammatory (IL-6) and anti-inflammatory (IL-10) interleukins were determined by performing specific ELISA assays (MyBioSource, San Diego, CA, United States ) on collected culture media. Human microglial cells (HMC3) were exposed to pretreatment with test compounds for 1 h followed by stimulation with LPS (10 μg/ml)/TNFα (50 ng/ml) for 24 h. In competition experiments, the CB2R antagonist (SR144528, 1 μM) or the CB2R positive allosteric modulator (EC21a 1 or 10 μM) were administered 15 min before agonist administration.

HMC3 cells = experiment: MTT assay, HMC3 cell viability; format: cell-based, human
Protocol: FIGURE 7 MTT assay performed with different concentrations of JR64a. Data represent means ± S.E.M. from n = 3 independent experiments, performed in triplicate. Statistical analysis was performed by ordinary one-way ANOVA followed by Tukey’s multiple comparison test. ^# p < 0.05 vs. control.

T1 sequence (P34972 whole entry): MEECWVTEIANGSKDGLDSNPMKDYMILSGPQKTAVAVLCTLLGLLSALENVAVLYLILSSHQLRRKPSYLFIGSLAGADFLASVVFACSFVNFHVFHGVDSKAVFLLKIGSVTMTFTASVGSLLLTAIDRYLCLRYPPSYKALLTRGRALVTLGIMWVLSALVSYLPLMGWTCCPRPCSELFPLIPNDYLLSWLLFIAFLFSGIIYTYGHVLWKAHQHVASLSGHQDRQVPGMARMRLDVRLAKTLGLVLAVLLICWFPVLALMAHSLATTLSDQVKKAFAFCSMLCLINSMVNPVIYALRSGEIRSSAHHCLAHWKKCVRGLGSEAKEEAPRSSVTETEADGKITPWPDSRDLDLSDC
T2 sequence (P21554 whole entry): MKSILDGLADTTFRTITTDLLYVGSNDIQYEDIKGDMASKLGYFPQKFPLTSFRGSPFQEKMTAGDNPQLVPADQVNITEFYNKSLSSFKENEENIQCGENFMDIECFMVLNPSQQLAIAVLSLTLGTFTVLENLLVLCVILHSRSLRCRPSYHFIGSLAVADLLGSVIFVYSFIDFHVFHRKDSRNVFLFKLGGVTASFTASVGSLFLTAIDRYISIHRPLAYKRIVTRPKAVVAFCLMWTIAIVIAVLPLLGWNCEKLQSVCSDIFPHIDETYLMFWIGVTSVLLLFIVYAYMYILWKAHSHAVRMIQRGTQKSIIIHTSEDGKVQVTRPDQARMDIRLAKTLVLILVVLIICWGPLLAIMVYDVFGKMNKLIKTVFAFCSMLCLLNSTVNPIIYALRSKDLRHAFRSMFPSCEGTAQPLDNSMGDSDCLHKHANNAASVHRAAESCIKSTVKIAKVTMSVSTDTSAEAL

With `Cc1c(Br)cn(CCCCCCCn2c(=O)c(C(=O)NC3CCC(C)CC3)cc3cccnc32)c(=O)c1NC(=O)C1CCCCCC1` (stereo not drawn) [JR64a, 1-(7-(5-bromo-3-(cycloheptanecarboxamido)-4-methyl-2-oxopyridin-1(2H)-yl)heptyl)-N-(4-methylcyclohexyl)-2-oxo-1,2-dihydro-1,8-naphthyridine-3-carboxamide] the EC50 (hCB2R [1]) was 8.6 nM, the “Response in inhibition of FSK-stimulated cAMP accumulation” value (hCB2R [1]; CHO-K1 hCB2R) was “modest partial agonist activity” and the “Inhibition of cAMP E max (% CP55,940) ± S.E.M” value (hCB2R [1]; CHO-K1 hCB2R, 10 µM FSK, 90 min) was 38 ± 0.74 % CP55,940. For the same molecule, the EC50 (hCB2R [2]) was > 10000 nM, the “βarrestin2 recruitment E max (% CP55,940) ± S.E.M” value (hCB2R [2]; CHO-K1 hCB2R, 90 min) was 45 ± 2.4 % CP55,940 and the “hCB1R E min (% CP55,940) ± S.E.M” value (hCB1R) was 104 ± 4.7 % CP55,940. The IC50 (hCB2R [3]) was 0.6 nM, the “hCB2R E min (% CP55,940) ± S.E.M” value (hCB2R [3]; % [3H]CP55,940 bound, 1 nM radioligand, 2 h) was 20 ± 10.3 % CP55,940 and the Anti-inflammatory properties ([4]; 10 μM, LPS/TNFα-stimulated HMC3) was “good anti-inflammatory properties”. For the same molecule, the “Anti-inflammatory activity (IL-6 and IL-10 levels)” value ([4]; 10 or 25 μM, 1 h pretreatment, then LPS/TNFα 24 h) was “marked anti-inflammatory activity”, the “Anti-inflammatory activity after pretreatment with CB2R antagonist SR144528” value ([4]; SR144528 1 μM 15 min before agonist, LPS/TNFα 24 h) was “completely abolished” and the HMC3 cytotoxicity (HMC3 cells; 10 μM) was “no relevant HMC3 cytotoxicity”. For the same molecule, the “Decrease in cell viability” value (HMC3 cells; 25 μM) was ~10%, the “Cytotoxic effects in HMC3 cells” value (HMC3 cells; 1 and 10 μM) was “no relevant cytotoxic effects” and the melting point was 121 °C (dec.).
